Measurements taken from patent US20130224223A1, “Compositions and Methods for Treating Neurological Disorders” (GEORGIA REGENTS UNIVERSITY, priority 2007, published 2013).

Target: T1, ErbB4 (Rattus norvegicus, UniProt Q62956)
T1 construct: cerebral cortex was dissected out of Sprague-Dawley rat embryos (E18) and dissociated; endogenous in cells; host or cells: primary rat (Sprague-Dawley) embryonic cortical neurons, DIV14, GAD65-positive
Experiment: phospho-ErbB4 immunostaining in GAD65-positive cortical neurons
Type: cell-based
Settings: pretreatment 10 min before 5 nM NRG1; AG1478/AG879 5 mM [sic]
Description: FIG. 4A is a bar graph showing quantitative analysis of phospho-ErbB4 (p-ErbB4) in GAD65-positive cortical neurons treated with ecto-ErbB4 for 10 min prior to the addition of NRG1 (5 nM, final concentration) for another 10 min. n=7, *p<0.05. FIG. 4B is a line graph of eIPSC amplitude (nA) versus time (min) for cortical slices treated with sequential addition of NRG1 (5 nM) and ecto-ErbB4 (1 μg/ml and 2 μg/ml) (all final concentrations). On the top are averaged traces before (a) and after (b) NRG1, and after different dosages of ecto-ErbB4 ([c] and [d], 1 and 2 μg/ml, respectively). […]
FIG. 5A is a bar graph of phospho-ErbB4 (p-ErbB4) in cortical neurons treated with 5 mM AG1478, an inhibitor of ErbB4, or AG879, an inhibitor of ErbB2, for 10 min prior to the addition of NRG1 (5 nM, final concentration). Neurons were fixed and stained with phospho-ErbB4 and GAD65 antibodies, and visualized with Alexa 594 and FITC-coupled secondary antibodies respectively, and quantified. […]

T1 sequence (Q62956 26-1308): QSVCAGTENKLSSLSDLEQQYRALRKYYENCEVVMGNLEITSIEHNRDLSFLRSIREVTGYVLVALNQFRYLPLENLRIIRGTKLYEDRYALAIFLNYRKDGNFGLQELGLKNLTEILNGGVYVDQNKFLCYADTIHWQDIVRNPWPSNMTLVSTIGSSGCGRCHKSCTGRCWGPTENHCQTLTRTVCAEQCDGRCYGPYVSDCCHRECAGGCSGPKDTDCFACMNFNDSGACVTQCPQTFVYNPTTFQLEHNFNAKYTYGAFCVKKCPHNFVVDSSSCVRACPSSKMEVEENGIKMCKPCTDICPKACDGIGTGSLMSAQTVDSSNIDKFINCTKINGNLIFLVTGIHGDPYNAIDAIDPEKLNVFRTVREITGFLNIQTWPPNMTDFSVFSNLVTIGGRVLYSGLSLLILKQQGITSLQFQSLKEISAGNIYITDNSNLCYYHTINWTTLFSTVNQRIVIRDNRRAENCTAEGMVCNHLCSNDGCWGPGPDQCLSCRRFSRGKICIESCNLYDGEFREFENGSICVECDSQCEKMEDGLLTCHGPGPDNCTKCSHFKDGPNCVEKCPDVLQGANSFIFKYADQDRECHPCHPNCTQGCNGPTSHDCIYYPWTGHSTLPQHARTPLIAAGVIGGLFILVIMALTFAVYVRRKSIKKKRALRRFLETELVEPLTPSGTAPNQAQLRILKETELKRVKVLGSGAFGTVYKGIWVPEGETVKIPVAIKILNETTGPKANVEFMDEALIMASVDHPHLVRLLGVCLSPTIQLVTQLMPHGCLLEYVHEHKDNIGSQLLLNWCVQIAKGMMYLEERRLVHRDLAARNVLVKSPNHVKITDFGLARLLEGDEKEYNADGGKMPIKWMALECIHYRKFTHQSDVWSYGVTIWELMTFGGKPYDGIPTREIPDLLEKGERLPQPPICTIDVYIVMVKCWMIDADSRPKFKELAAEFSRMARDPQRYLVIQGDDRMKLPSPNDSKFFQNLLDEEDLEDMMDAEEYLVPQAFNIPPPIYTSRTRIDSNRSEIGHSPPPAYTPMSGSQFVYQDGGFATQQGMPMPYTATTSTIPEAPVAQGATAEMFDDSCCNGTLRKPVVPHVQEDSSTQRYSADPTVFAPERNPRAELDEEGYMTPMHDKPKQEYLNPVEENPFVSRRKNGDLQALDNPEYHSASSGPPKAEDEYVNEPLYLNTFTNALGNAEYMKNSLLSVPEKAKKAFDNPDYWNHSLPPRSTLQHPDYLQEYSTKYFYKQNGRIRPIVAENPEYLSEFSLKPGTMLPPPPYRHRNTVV

## COc1cc2ncnc(Nc3cccc(Cl)c3)c2cc1OC [AG1478]
  NRG1 activation (tyrosine phosphorylation) of ErbB4: blocked
